Consider six compounds from BindingDB's records for doi:10.1007/pl00005288 (King'S College London, 1998).

Assay [1] has as its target T1, Melatonin receptor type 1B (Homo sapiens, UniProt P49286).
T1 sequence (P49286 whole entry): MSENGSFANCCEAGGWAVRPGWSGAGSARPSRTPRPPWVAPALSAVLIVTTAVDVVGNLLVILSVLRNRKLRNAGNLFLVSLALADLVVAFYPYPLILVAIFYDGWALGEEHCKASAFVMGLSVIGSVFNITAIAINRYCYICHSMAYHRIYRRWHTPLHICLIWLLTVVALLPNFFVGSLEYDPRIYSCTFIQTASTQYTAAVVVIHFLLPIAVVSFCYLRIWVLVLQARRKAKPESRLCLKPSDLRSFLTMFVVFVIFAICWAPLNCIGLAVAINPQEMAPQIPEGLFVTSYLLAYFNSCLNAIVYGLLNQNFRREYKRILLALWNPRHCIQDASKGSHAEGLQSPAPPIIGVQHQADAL

The target in assay [2] is Melatonin receptor type 1A (Homo sapiens, UniProt P48039).
For assay [3], the target named is T2, Melatonin receptor type 1B (Gallus gallus, UniProt P51050).
T2 sequence (P51050 whole entry): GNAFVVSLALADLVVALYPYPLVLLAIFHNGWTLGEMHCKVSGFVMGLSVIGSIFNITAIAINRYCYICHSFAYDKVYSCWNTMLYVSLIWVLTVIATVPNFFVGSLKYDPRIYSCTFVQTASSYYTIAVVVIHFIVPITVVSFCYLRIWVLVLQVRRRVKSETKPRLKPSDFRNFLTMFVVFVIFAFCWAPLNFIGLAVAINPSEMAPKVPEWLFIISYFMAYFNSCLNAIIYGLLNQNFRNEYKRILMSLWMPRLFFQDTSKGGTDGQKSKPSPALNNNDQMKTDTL

Assay [4] deals with T3, Melatonin receptor type 1C (Xenopus laevis, UniProt P49219).
T3 sequence (P49219 whole entry): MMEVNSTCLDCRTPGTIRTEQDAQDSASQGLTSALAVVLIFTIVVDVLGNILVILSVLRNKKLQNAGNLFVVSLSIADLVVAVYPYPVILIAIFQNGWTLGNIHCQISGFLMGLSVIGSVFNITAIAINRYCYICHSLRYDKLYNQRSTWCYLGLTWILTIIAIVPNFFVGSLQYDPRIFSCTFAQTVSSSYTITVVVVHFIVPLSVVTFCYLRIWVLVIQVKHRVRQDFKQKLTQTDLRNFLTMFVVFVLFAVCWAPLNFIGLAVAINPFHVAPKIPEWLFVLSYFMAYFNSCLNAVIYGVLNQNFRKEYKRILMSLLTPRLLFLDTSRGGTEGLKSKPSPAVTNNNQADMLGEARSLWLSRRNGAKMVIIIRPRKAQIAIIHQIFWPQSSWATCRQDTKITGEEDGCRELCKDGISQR

The structures appear in SMILES notation.

Chain of Melatonin receptor type 1A (P48039 whole entry): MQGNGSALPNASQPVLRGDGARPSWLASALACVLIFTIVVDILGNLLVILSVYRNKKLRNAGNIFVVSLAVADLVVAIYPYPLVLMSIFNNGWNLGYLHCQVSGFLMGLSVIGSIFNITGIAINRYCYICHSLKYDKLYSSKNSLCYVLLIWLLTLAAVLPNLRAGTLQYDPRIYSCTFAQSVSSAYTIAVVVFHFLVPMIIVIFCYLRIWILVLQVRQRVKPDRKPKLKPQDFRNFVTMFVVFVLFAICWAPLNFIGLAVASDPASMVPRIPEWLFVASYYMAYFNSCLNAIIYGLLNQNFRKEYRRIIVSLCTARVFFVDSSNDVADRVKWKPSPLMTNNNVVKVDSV

The Ki is the equilibrium dissociation constant of an inhibitor or competing ligand from its target. As to `CC(=O)NCCc1c(Cc2ccccc2)[nH]c2ccccc12` [CAS_117946-91-5], the inhibition constant (Ki) in assay [1] was determined as 26.9 nM; in assay [2] it was 513 nM; in assay [3] it was 1740 nM; in assay [4], 2040 nM.
`CCCCCC(=O)NCCc1c(Cc2ccccc2)[nH]c2ccc(OC)cc12` [Luzindole,5-MeOT-N-hexanyl]: the Ki was found to be 324 nM in assay [1], 339 nM in assay [2], 776 nM in assay [3] and 1380 nM in assay [4].
Taken in the same sequence, the figures for `CCCC(=O)NCCc1c(Cc2ccccc2)[nH]c2ccccc12` [Luzindole,N-butanoyl] were 1320 nM, 3020 nM, > 10000 nM and 3800 nM.
For `CCCCCC(=O)NCCc1c(Cc2ccccc2)[nH]c2ccccc12` [Luzindole,N-hexanoyl], in that order: 7080 nM, 5500 nM, 6460 nM and 5750 nM.
For `CCCCC(=O)NCCc1c(Cc2ccccc2)[nH]c2ccccc12` [Luzindole,N-pentanoyl], in that order: 9.33 nM, 832 nM, 933 nM and 2140 nM.
Consider `CCC(=O)NCCc1c(Cc2ccccc2)[nH]c2ccccc12` [Luzindole,N-propanoyl], for which the Ki in assay [1] was 22.9 nM; in assay [2] it was 776 nM; in assay [3], 1950 nM; in assay [4], 3160 nM.
